Key:
Assay in all cases: DSF 100 kinase selectivity screen;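 also: compound tested at 20 µM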
Type in all cases: binding
[1] = molecular target: T1, ~100 representative kinases (Homo sapiens, UniProt Q96RR4); settings: Protein CAMKK2; average of three replicates
T1 construct: Recombinant protein kinase domains with a concentration of 2 μM
Protocol: (§1) Recombinant protein kinase domains with a concentration of 2 μM were mixed with a 20 μM compound solution in dimethyl sulfoxide (DMSO), 20 mM Hepes (pH 7.5), and 500 mM NaCl. SYPRO Orange (5000×, Invitrogen) was added as a fluorescence probe (1μl/ml). Subsequently, temperature-dependent protein unfolding profiles were measured using the QuantStudio 5 realtime PCR machine (Thermo Fisher Scientific, Waltham, MA, USA). […] The temperature was raised with a step rate of 3°C/min. […] Differences in melting temperature are given as ΔTm values in degrees Celsius. […]

[2] = molecular target: T2, ~100 representative kinases (Homo sapiens, UniProt Q15375); settings: Protein EPHA7; average of three replicates
T2 construct: Recombinant protein kinase domains with a concentration of 2 μM
T2 sequence (Q15375 28-998): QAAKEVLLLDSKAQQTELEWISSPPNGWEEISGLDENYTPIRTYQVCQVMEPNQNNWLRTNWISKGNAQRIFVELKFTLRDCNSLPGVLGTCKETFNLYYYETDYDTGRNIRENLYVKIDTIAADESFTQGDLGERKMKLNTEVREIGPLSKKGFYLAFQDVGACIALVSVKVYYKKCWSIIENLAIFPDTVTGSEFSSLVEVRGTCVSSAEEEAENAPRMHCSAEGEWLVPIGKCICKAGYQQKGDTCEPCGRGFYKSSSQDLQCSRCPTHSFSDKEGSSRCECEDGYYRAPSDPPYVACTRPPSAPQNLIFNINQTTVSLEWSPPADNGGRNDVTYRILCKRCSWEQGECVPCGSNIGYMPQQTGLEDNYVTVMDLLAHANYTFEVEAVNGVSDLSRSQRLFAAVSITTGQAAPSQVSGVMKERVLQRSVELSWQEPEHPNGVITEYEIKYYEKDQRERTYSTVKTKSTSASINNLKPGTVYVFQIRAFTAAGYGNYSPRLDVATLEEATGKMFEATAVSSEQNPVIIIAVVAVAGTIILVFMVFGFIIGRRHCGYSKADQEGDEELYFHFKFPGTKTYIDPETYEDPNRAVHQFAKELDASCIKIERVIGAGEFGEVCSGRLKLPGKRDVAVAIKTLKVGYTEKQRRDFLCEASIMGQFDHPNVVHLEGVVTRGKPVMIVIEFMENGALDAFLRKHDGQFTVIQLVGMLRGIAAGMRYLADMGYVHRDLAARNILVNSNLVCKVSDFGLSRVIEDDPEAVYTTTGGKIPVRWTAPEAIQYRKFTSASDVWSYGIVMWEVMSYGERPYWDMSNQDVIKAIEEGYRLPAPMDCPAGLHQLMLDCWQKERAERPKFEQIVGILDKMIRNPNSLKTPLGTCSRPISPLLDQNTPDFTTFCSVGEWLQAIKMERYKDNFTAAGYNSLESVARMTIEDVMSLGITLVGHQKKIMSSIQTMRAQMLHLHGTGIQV
Protocol: as §1

[3] = molecular target: T3, ~100 representative kinases (Homo sapiens, UniProt Q9H4A3); settings: Protein WNK1; DSF; average of three replicates
T3 construct: Recombinant protein kinase domains with a concentration of 2 μM
T3 sequence (Q9H4A3 whole entry, the tested form may be a part): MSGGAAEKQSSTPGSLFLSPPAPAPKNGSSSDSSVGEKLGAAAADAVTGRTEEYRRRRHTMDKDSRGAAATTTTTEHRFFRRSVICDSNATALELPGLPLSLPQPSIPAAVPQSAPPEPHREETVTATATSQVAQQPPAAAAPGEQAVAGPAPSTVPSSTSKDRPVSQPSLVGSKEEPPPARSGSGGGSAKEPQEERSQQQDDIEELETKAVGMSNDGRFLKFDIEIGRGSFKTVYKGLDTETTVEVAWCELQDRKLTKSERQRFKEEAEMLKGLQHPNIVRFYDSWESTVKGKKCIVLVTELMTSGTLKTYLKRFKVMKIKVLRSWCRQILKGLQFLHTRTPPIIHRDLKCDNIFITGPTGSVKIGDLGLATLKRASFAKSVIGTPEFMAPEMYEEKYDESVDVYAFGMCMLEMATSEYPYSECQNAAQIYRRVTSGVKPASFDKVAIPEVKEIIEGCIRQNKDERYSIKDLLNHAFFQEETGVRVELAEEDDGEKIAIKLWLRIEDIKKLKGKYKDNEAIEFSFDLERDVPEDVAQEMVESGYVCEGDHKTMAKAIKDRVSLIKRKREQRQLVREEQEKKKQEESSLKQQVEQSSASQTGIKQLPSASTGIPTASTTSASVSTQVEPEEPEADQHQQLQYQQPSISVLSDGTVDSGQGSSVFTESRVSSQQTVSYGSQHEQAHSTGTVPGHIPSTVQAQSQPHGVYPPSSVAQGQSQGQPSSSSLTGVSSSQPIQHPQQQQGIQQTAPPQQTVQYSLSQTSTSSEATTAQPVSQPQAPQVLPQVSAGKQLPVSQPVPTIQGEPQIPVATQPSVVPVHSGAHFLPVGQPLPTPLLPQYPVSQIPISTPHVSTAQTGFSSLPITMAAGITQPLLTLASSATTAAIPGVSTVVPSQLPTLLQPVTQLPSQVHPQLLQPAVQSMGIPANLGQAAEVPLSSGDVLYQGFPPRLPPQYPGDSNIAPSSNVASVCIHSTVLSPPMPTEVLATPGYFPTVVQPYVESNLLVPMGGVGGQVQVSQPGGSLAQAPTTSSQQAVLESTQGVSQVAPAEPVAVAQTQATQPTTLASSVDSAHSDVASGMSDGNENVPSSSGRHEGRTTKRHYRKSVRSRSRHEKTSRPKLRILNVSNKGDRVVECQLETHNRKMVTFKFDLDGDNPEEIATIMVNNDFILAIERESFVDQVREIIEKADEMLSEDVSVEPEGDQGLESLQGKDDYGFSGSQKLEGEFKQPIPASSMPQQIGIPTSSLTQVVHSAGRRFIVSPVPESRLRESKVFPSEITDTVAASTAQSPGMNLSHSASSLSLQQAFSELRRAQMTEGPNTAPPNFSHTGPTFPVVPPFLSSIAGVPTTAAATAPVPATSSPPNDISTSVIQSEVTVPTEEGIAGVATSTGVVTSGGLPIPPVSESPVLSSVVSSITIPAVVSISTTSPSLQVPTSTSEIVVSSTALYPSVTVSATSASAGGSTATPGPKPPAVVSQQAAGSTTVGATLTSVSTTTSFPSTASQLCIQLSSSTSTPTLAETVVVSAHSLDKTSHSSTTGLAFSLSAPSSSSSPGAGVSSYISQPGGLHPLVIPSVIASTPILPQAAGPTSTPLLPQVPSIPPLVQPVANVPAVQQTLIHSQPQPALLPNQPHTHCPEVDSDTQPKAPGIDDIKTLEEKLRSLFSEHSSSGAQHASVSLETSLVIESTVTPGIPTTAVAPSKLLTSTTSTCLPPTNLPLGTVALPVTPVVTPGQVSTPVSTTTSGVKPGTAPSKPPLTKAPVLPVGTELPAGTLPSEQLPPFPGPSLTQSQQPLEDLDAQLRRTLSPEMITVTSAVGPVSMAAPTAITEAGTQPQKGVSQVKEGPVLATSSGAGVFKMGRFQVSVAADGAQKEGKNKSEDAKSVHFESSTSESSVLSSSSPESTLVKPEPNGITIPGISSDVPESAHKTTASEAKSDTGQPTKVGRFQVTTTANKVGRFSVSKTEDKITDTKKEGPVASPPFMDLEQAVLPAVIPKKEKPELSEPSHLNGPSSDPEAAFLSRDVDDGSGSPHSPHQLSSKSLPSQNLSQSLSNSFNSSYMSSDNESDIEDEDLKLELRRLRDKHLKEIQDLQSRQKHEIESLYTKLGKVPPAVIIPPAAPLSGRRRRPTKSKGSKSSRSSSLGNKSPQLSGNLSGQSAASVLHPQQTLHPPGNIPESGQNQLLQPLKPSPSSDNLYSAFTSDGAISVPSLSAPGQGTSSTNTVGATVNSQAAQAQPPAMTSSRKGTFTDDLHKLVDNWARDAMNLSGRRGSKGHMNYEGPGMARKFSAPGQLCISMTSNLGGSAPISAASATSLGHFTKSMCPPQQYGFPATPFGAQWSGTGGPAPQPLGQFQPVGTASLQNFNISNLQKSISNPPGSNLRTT
Protocol: as §1

[4] = molecular target: T4, ~100 representative kinases (Homo sapiens, UniProt Q99986); settings: Protein VRK1; DSF; average of three replicates
T4 construct: Recombinant protein kinase domains with a concentration of 2 μM
T4 sequence (Q99986 1-396): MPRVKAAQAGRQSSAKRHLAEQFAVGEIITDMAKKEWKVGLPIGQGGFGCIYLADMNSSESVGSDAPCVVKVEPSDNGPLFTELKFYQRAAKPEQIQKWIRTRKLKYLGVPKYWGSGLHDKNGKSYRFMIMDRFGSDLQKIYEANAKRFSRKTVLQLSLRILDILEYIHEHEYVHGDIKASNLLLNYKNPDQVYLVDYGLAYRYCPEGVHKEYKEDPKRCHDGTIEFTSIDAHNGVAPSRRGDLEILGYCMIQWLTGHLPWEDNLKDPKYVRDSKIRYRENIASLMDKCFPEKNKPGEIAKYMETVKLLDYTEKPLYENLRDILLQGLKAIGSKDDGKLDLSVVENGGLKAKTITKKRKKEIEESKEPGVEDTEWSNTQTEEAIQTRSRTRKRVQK
Protocol: as §1

[5] = molecular target: T5, ~100 representative kinases (Homo sapiens, UniProt Q9Y2H1); settings: Protein STK38L; DSF; average of three replicates
T5 construct: Recombinant protein kinase domains with a concentration of 2 μM
T5 sequence (Q9Y2H1 whole entry, the tested form may be a part): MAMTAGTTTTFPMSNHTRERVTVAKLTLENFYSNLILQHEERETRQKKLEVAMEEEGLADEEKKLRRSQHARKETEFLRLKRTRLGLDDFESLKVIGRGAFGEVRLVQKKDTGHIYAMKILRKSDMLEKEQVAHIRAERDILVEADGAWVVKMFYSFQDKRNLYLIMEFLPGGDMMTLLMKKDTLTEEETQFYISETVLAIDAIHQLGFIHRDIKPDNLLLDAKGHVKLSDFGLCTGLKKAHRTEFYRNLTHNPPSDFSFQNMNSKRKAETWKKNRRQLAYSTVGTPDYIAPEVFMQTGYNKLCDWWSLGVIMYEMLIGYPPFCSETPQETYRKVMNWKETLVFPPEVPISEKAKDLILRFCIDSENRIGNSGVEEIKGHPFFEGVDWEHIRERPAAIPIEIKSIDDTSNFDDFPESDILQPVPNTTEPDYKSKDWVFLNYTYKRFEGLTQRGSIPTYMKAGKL
Protocol: as §1

[6] = molecular target: T6, ~100 representative kinases (Homo sapiens, UniProt P49761); settings: Protein CLK3; average of three replicates
T6 construct: Recombinant protein kinase domains with a concentration of 2 μM
T6 sequence (P49761 whole entry, the tested form may be a part): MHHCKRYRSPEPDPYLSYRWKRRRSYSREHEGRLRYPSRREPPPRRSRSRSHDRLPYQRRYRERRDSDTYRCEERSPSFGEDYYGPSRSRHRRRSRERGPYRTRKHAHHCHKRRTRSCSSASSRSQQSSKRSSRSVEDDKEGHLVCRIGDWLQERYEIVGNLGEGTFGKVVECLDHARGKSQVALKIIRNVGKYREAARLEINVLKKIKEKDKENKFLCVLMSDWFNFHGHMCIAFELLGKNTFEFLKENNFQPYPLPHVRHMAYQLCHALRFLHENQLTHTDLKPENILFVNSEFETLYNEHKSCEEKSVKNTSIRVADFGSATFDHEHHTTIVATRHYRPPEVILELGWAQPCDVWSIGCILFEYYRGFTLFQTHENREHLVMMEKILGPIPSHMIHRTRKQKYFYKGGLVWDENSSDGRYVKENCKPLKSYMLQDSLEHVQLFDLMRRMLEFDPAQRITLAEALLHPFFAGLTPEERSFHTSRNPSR
Protocol: as §1

[7] = molecular target: T7, ~100 representative kinases (Homo sapiens, UniProt P53779); settings: protein MAPK10; average of three replicates
T7 construct: Recombinant protein kinase domains with a concentration of 2 μM
Protocol: as §1

[8] = molecular target: T8, ~100 representative kinases (Homo sapiens, UniProt Q9UEE5); settings: Protein STK17A; DSF; average of three replicates
T8 construct: Recombinant protein kinase domains with a concentration of 2 μM
T8 sequence (Q9UEE5 1-414): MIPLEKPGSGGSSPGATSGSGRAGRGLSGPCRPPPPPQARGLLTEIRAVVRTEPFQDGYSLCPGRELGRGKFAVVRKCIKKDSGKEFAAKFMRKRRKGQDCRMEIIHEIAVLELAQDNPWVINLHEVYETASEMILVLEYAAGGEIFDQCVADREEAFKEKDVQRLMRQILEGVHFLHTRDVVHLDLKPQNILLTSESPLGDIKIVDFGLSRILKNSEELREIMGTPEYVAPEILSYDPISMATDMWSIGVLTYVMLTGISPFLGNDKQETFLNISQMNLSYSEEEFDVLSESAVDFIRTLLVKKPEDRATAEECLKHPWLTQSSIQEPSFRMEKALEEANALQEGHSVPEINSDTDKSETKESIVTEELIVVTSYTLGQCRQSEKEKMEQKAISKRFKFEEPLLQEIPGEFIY
Protocol: as §1

[9] = molecular target: T9, ~100 representative kinases (Homo sapiens, UniProt Q96NX5); settings: Protein CAMK1G; average of three replicates
T9 construct: Recombinant protein kinase domains with a concentration of 2 μM
T9 sequence (Q96NX5 whole entry, the tested form may be a part): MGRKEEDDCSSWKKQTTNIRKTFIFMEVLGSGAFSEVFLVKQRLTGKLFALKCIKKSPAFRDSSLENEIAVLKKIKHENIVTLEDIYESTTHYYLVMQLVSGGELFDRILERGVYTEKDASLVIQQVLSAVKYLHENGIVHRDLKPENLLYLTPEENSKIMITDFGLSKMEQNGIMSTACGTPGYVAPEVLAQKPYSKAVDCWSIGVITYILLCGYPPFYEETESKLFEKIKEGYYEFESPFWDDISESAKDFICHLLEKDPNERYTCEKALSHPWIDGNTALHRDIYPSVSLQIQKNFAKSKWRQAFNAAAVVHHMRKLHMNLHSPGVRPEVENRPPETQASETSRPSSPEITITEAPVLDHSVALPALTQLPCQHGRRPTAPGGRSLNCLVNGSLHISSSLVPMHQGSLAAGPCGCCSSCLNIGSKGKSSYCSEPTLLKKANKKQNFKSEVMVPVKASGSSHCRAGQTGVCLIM
Protocol: as §1

[10] = molecular target: T10, ~100 representative kinases (Homo sapiens, UniProt O14936); settings: Protein CASK; average of three replicates
T10 construct: Recombinant protein kinase domains with a concentration of 2 μM
T10 sequence (O14936 1-926): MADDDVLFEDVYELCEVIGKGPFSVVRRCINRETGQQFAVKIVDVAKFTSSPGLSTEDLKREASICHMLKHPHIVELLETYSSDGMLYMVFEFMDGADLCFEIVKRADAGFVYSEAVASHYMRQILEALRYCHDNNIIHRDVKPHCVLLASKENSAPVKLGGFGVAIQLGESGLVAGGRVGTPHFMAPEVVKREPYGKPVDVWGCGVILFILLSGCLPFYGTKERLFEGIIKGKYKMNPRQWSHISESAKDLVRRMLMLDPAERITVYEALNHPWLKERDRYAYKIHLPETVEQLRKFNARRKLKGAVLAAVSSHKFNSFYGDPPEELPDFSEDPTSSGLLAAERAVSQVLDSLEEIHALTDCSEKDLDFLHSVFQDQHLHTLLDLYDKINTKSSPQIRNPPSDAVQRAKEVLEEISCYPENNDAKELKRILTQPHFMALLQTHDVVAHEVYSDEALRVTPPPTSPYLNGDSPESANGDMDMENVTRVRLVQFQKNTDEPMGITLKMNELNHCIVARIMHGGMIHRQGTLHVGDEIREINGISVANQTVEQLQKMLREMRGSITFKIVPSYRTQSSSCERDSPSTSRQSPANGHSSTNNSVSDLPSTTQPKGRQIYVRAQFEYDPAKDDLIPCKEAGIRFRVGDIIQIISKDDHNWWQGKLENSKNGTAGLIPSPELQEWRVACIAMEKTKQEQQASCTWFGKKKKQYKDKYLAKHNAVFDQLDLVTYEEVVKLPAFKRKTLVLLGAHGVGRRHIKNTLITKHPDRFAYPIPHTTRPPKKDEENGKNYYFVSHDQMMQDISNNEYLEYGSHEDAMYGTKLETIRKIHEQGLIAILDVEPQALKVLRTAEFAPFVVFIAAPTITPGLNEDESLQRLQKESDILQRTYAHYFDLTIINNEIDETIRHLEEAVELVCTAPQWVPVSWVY
Protocol: as §1

[11] = molecular target: T11, ~100 representative kinases (Homo sapiens, UniProt Q86V86); settings: protein PIM3; average of three replicates
T11 construct: Recombinant protein kinase domains with a concentration of 2 μM
Protocol: as §1

[12] = molecular target: T12, ~100 representative kinases (Homo sapiens, UniProt O96013); settings: protein PAK4; average of three replicates
T12 construct: Recombinant protein kinase domains with a concentration of 2 μM
Protocol: as §1

| Compound | dTm [1] | dTm [2] | dTm [3] | dTm [4] | dTm [5] | dTm [6] | dTm [7] | dTm [8] | dTm [9] | dTm [10] | dTm [11] | dTm [12] |
| --- | --- | --- | --- | --- | --- | --- | --- | --- | --- | --- | --- | --- |
| Cc1ccc(NC(=O)C2(C(=O)Nc3cccc(-c4c[nH]c5ncnc(N6CCOCC6)c45)c3)CC2)cc1 [Compound 14] | 4.94 K | -1.63 K | 0.16 K | 0.91 K | 0.07 K | 2.40 K | -1.31 K | -0.61 K | 1.22 K | 0.19 K | 0.71 K | -0.55 K |
| Cc1cc(NC(=O)C2(C(=O)Nc3ccc(F)cc3)CC2)cc(-c2c[nH]c3ncnc(N4CCOCC4)c23)c1 [Compound 6] | 4.32 K | 1.69 K | 0.73 K | 0.70 K | 0.00 K | 0.98 K | 2.20 K | 0.40 K | 3.07 K | 0.76 K | 1.05 K | 0.99 K |
| O=C(Nc1cc(F)cc(Br)c1)C1(C(=O)Nc2cccc(-c3c[nH]c4ncnc(N5CCOCC5)c34)c2)CC1 [Compound 27] | 3.64 K | 2.33 K | 0.64 K | 1.05 K | -0.80 K | 2.41 K | 5.93 K | 1.21 K | 3.15 K | 1.15 K | -0.05 K | 0.52 K |
| COc1ccc(NC(=O)C2(C(=O)Nc3cccc(-c4c[nH]c5ncnc(N6CCOCC6)c45)c3)CC2)cc1 [Compound 16] | 1.74 K | -2.77 K | -0.0251 K | 0.60 K | -0.19 K | 0.51 K | 0.65 K | -0.48 K | -0.76 K | 0.15 K | 0.23 K | -0.80 K |
| O=C(Nc1ccc(Cl)cc1)C1(C(=O)Nc2cccc(-c3c[nH]c4ncnc(N5CCOCC5)c34)c2)CC1 [Compound 13] | 7.83 K | 0.19 K | 0.30 K | 2.20 K | 0.49 K | 4.87 K | 3.61 K | 1.64 K | 3.50 K | 0.70 K | 1.90 K | 1.17 K |
| CNC(=O)c1cc(Oc2ccc(NC(=O)Nc3cc(C(C)(C)C)nn3-c3ccc4ncccc4c3)c(F)c2)ccn1 [Rebastinib, reference compound] | 8.93 K | 3.35 K | – | 0.52 K | – | 8.68 K | 3.02 K | 3.53 K | – | -12.03 K | 6.29 K | 4.23 K |
| Cc1ccc(C(=O)Nc2ccc(CN3CCN(C)CC3)c(C(F)(F)F)c2)cc1C#Cc1cnc2cccnn12 [Ponatinib, reference compound] | – | – | – | – | – | – | – | – | 1.16 K | – | – | – |
| CN[C@@H]1C[C@H]2O[C@@](C)([C@@H]1OC)n1c3ccccc3c3c4c(c5c6ccccc6n2c5c31)C(=O)NC4 [Staurosporine] | 24.44 K | 12.09 K | 2.20 K | – | – | – | – | – | – | – | 16.71 K | – |

Next, values leading:

| dTm [1] | dTm [2] | dTm [3] | dTm [4] | dTm [5] | dTm [6] | dTm [7] | dTm [8] | dTm [9] | dTm [10] | dTm [11] | dTm [12] | Compound |
| --- | --- | --- | --- | --- | --- | --- | --- | --- | --- | --- | --- | --- |
| – | 0.22 K | -0.58 K | -1.13 K | -1.01 K | 3.71 K | -0.06 K | 0.28 K | -0.26 K | -0.47 K | -1.11 K | 0.13 K | Cc1ccc(-n2nc(C(C)(C)C)cc2NC(=O)Nc2cccc(-c3c[nH]c4nc(Cl)nc(N5CCOCC5)c34)c2)cc1 [Compound 30] |
| 1.38 K | -0.20 K | -0.0645 K | 0.12 K | 0.75 K | 1.84 K | 0.33 K | 0.32 K | 0.32 K | 0.33 K | 0.92 K | 1.08 K | CCNc1nc(Nc2cc(F)c(C(=O)N3CCOCC3)cc2OC)ncc1C(F)(F)F [GNE-7915] |
| – | 2.68 K | 1.43 K | -0.55 K | -0.41 K | 14.57 K | 3.60 K | 3.34 K | 3.88 K | 0.14 K | 0.33 K | 1.80 K | Cc1ccc(-n2nc(C(C)(C)C)cc2NC(=O)Nc2cccc(-c3c[nH]c4ncnc(N5CCOCC5)c34)c2)cc1 [Compound 29] |
| – | 0.34 K | 0.46 K | -1.18 K | -0.73 K | 3.34 K | 0.82 K | -0.15 K | 0.05 K | -2.83 K | 0.67 K | 0.48 K | CC(=O)N1CCN(c2nc(Cl)nc3[nH]cc(-c4cccc(NC(=O)Nc5cc(C(C)(C)C)nn5-c5ccc(C)cc5)c4)c23)CC1 [Compound 31] |
| – | 0.12 K | 0.04 K | -0.55 K | -1.21 K | 1.12 K | 2.71 K | -0.19 K | 1.99 K | -0.21 K | 0.48 K | 0.22 K | COc1cc(S(C)(=O)=O)ccc1Nc1nc(N(C)C)c2c(Cl)c[nH]c2n1 [Compound 37] |
| – | 2.27 K | 0.40 K | -1.69 K | -1.36 K | 2.75 K | 5.50 K | 0.25 K | 4.24 K | -0.72 K | -0.33 K | -0.14 K | COc1cc(C(=O)N2CCOCC2)c(F)cc1Nc1nc(N(C)C)c2c(Cl)c[nH]c2n1 [Compound 36] |
